Assay results: patent US11111251B2, “Positive allosteric modulators of the muscarinic acetylcholine receptor M1” (Vanderbilt University, priority 2016, dated 2021)

Target: T1, human mAChR M1 (Homo sapiens, UniProt P11229)
T1 sequence (P11229 1-460): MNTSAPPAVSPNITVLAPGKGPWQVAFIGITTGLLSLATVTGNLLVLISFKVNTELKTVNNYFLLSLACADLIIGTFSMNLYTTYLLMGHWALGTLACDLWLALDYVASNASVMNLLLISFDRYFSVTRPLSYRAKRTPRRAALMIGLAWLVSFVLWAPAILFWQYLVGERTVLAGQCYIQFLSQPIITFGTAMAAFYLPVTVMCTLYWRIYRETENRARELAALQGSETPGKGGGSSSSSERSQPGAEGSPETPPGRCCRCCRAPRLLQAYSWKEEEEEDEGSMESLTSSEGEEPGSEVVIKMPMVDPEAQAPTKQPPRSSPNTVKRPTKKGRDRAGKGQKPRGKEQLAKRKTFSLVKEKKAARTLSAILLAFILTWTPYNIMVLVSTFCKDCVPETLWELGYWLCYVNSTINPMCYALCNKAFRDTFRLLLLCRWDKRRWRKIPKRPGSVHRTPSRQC
Assay: mAChR M1 cell-based functional assay: calcium mobilization, positive allosteric modulator mode (increase in EC20 acetylcholine response)
Conditions: Table 2, human M1; for EC50: read-out: Human M1 EC50; for Emax: read-out: Human M1 Emax (%)
How it was run: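 PAM potency reflects the concentration-dependent increase in calcium response to an EC20 acetylcholine challenge, given 144 s into a 300 s read after compound addition at 4 s (EC80 follows at 230 s). Cells were hM1-expressing CHO-K1, loaded 50 min with Fluo-4 AM. Curves used 11 points at 1:3 dilutions and four-parameter logistic fitting.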

| Structure (SMILES) | EC50 [nM] | Emax [%] |
| --- | --- | --- |
| Cc1nn(C)cc1-c1ccc(Cc2cc(C(=O)N[C@H]3CCOC[C@@H]3O)nc3ccsc23)cc1 [Compound 248, 7-[[4-(1,3-dimethylpyrazol-4-yl)phenyl]methyl]-N-[(3R,4S)-3-hydroxytetrahydropyran-4-yl]thieno[3,2-b]pyridine-5-carboxamide] | 4880 | 71.3 |
| Cc1nn(C)cc1-c1ccc(Cc2cc(C(=O)N[C@H]3COCC[C@@H]3O)nc3ccsc23)cc1 [Compound 249, 7-[[4-(1,3-dimethylpyrazol-4-yl)phenyl]methyl]-N-[(3S,4S)-4-hydroxytetrahydropyran-3-yl]thieno[3,2-b]pyridine-5-carboxamide] | > 10000 | 42.1 |
| Cn1ccc(-c2ccc(Cc3cc(C(=O)N[C@H]4CCC[C@@H]4O)nc4ccsc34)cc2)n1 [Compound 253, N-[(1S,2S)-2-hydroxycyclopentyl]-7-[[4-(1-methylpyrazol-3-yl)phenyl]methyl]thieno[3,2-b]pyridine-5-carboxamide] | 144 | 74.5 |
| Cn1ccc(-c2ccc(Cc3cc(C(=O)NC4CCOCC4)nc4ccsc34)cc2)n1 [Compound 254, 7-[[4-(1-methylpyrazol-3-yl)phenyl]methyl]-N-tetrahydropyran-4-yl-thieno[3,2-b]pyridine-5-carboxamide] | 142 | 71.6 |
| Cc1ccc(Cc2cc(C(=O)NC3COC3)nc3ccsc23)cn1 [Compound 258, 7-[(6-methyl-3-pyridyl)methyl]-N-(oxetan-3-yl)thieno[3,2-b]pyridine-5-carboxamide] | > 10000 | 27.5 |
| Cc1ccc(Cc2cc(C(=O)N[C@@H]3CCOC3)nc3ccsc23)cn1 [Compound 262] | > 10000 | 24.4 |
| O=C(NC1CCOCC1)c1cc(C(=O)c2ccc(-n3cccn3)cc2)c2sccc2n1 [Compound 264, 7-(4-pyrazol-1-ylbenzoyl)-N-tetrahydropyran-4-yl-thieno[3,2-b]pyridine-5-carboxamide] | > 10000 | 72.7 |
| Cc1ccc(Cc2cc(C(=O)N[C@H]3CCCNC3)nc3ccsc23)cn1 [Compound 266, 7-[(6-methyl-3-pyridyl)methyl]-N-[(3S)-3-piperidyl]thieno[3,2-b]pyridine-5-carboxamide] | > 10000 | 59.3 |
| Cc1csc2c(Cc3ccc(-n4cccn4)cc3)cc(C(=O)N[C@H]3CCOC[C@@H]3O)nc12 [Compound 269, N-[(3R,4S)-3-hydroxytetrahydropyran-4-yl]-3-methyl-7-[(4-pyrazol-1-ylphenyl)methyl]thieno[3,2-b]pyridine-5-carboxamide] | 23.4 | 77.6 |
| O=C(N[C@H]1CCOC[C@@H]1O)c1cc(Cc2c(F)cc(-c3cscn3)cc2F)c2sccc2n1 [Compound 270, 7-[(2,6-difluoro-4-thiazol-4-yl-phenyl)methyl]-N-[(3R,4S)-3-hydroxytetrahydropyran-4-yl]thieno[3,2-b]pyridine-5-carboxamide] | 39.7 | 78.5 |
| O=C(NC1CCOCC1)c1cc(Cc2c(F)cc(-c3cscn3)cc2F)c2sccc2n1 [Compound 271, 7-[(2,6-difluoro-4-thiazol-4-yl-phenyl)methyl]-N-tetrahydropyran-4-yl-thieno[3,2-b]pyridine-5-carboxamide] | 312 | 45.5 |
| O=C(NC1CC2(COC2)C1)c1cc(Cc2c(F)cc(-c3cscn3)cc2F)c2sccc2n1 [Compound 272, 7-[(2,6-difluoro-4-thiazol-4-yl-phenyl)methyl]-N-(2-oxaspiro[3.3]heptan-6-yl)thieno[3,2-b]pyridine-5-carboxamide] | 434 | 35.9 |
| O=C(N[C@H]1CCCC[C@@H]1O)c1cc(Cc2c(F)cc(-c3cscn3)cc2F)c2sccc2n1 [Compound 273, 7-[(2,6-difluoro-4-thiazol-4-yl-phenyl)methyl]-N-[(1S,2S)-2-hydroxycyclohexyl]thieno[3,2-b]pyridine-5-carboxamide] | 272 | 73.6 |
| O=C(N[C@@H]1CC[C@H]1O)c1cc(Cc2c(F)cc(-c3cscn3)cc2F)c2sccc2n1 [Compound 274, 7-[(2,6-difluoro-4-thiazol-4-yl-phenyl)methyl]-N-[(1R,2R)-2-hydroxycyclobutyl]thieno[3,2-b]pyridine-5-carboxamide] | > 10000 | 46.8 |

Now from value to molecule:

| EC50 [nM] | Emax [%] | Structure (SMILES) |
| --- | --- | --- |
| > 10000 | 16.2 | Cc1nn(C)cc1-c1ccc(Cc2cc(C(=O)NC3CN(C(C)(C)C)C3)nc3ccsc23)cc1 [Compound 245, N-(1-tert-butylazetidin-3-yl)-7-[[4-(1,3-dimethylpyrazol-4-yl)phenyl]methyl]thieno[3,2-b]pyridine-5-carboxamide] |
| > 10000 | 16 | COC1CC(NC(=O)c2cc(Cc3ccc(-c4cn(C)nc4C)cc3)c3sccc3n2)C1 (stereo not drawn) [Compound 246, 7-[[4-(1,3-dimethylpyrazol-4-yl)phenyl]methyl]-N-(3-methoxycyclobutyl)thieno[3,2-b]pyridine-5-carboxamide] |
| 4060 | 30.6 | Cc1nn(C)cc1-c1ccc(Cc2cc(C(=O)N[C@H]3CCC[C@@H]3O)nc3ccsc23)cc1 [Compound 247, 7-[[4-(1,3-dimethylpyrazol-4-yl)phenyl]methyl]-N-[(1S,2S)-2-hydroxycyclopentyl]thieno[3,2-b]pyridine-5-carboxamide] |
| > 10000 | 48.1 | Cc1nn(C)cc1-c1ccc(Cc2cc(C(=O)N[C@H]3CCCC[C@@H]3O)nc3ccsc23)cc1 [Compound 250] |
| 234 | 70.3 | Cn1ccc(-c2ccc(Cc3cc(C(=O)N[C@@H]4CC[C@H]4O)nc4ccsc34)cc2)n1 [Compound 251, N-[(1R,2R)-2-hydroxycyclobutyl]-7-[[4-(1-methylpyrazol-3-yl)phenyl]methyl]thieno[3,2-b]pyridine-5-carboxamide] |
| 258 | 78.4 | Cn1ccc(-c2ccc(Cc3cc(C(=O)NC4CC5(COC5)C4)nc4ccsc34)cc2)n1 [Compound 252, 7-[[4-(1-methylpyrazol-3-yl)phenyl]methyl]-N-(2-oxaspiro[3.3]heptan-6-yl)thieno[3,2-b]pyridine-5-carboxamide] |
| 5.76 | 47 | Cn1ccc(-c2ccc(Cc3cc(C(=O)N[C@H]4CCOC[C@@H]4O)nc4ccsc34)cc2)n1 [Compound 255, N-[(3R,4S)-3-hydroxytetrahydropyran-4-yl]-7-[[4-(1-methylpyrazol-3-yl)phenyl]methyl]thieno[3,2-b]pyridine-5-carboxamide] |
| 57.6 | 50 | Cn1ccc(-c2ccc(Cc3cc(C(=O)N[C@H]4CCCC[C@@H]4O)nc4ccsc34)cc2)n1 [Compound 256, N-[(1S,2S)-2-hydroxycyclohexyl]-7-[[4-(1-methylpyrazol-3-yl)phenyl]methyl]thieno[3,2-b]pyridine-5-carboxamide] |
| > 10000 | 26.4 | Cc1ccc(Cc2cc(C(=O)NC3(C#N)CC3)nc3ccsc23)cn1 [Compound 257, N-(1-cyanocyclopropyl)-7-[(6-methyl-3-pyridyl)methyl]thieno[3,2-b]pyridine-5-carboxamide] |
| > 10000 | 56.2 | Cc1ccc(Cc2cc(C(=O)NC3CC(F)C3)nc3ccsc23)cn1 (stereo not drawn) [Compound 259, N-(3-fluorocyclobutyl)-7-[(6-methyl-3-pyridyl)methyl]thieno[3,2-b]pyridine-5-carboxamide] |
| 5370 | 58.4 | Cc1ccc(Cc2cc(C(=O)NC3CC(F)(F)C3)nc3ccsc23)cn1 [Compound 260, N-(3,3-difluorocyclobutyl)-7-[(6-methyl-3-pyridyl)methyl]thieno[3,2-b]pyridine-5-carboxamide] |
| > 10000 | 52.8 | Cc1ccc(Cc2cc(C(=O)NC3CC4(COC4)C3)nc3ccsc23)cn1 [Compound 261, 7-[(6-methyl-3-pyridyl)methyl]-N-(2-oxaspiro[3.3]heptan-6-yl)thieno[3,2-b]pyridine-5-carboxamide] |
| > 10000 | 29.3 | Cc1ccc(Cc2cc(C(=O)N[C@H]3CCOC3)nc3ccsc23)cn1 [Compound 263, 7-[(6-methyl-3-pyridyl)methyl]-N-[(35)-tetrahydrofuran-3-yl]thieno[3,2-b]pyridine-5-carboxamide] |
| > 10000 | 56.4 | Cc1ccc(Cc2cc(C(=O)N[C@@H]3CCCNC3)nc3ccsc23)cn1 [Compound 265, 7-[(6-methyl-3-pyridyl)methyl]-N-[(3R)-3-piperidyl]thieno[3,2-b]pyridine-5-carboxamide] |
| 3.41 | 50.9 | Cn1cc(-c2ccc(Cc3cc(C(=O)N[C@H]4CCOC[C@@H]4O)nc4ccsc34)cc2)cn1 [Compound 267, N-[(3R,4S)-3-hydroxytetrahydropyran-4-yl]-7-[[4-(1-methylpyrazol-4-yl)phenyl]methyl]thieno[3,2-b]pyridine-5-carboxamide] |
| 59.5 | 70.1 | Cn1cc(-c2ccc(Cc3cc(C(=O)NC4CCOCC4)nc4ccsc34)cc2)cn1 [Compound 268, 7-[[4-(1-methylpyrazol-4-yl)phenyl]methyl]-N-tetrahydropyran-4-yl-thieno[3,2-b]pyridine-5-carboxamide] |
